Measured values: patent US10604489B2, “Compounds for the treatment of pain” (priority 2018, dated 2020)
Where a name gives a salt, the structure may show the parent alone.

Tests used:
[1] = molecular target: μ-receptor (Homo sapiens (Human), UniProt P35372); experiment: Receptor binding, competitive displacement of [3H]DAMGO; conditions: 0.25 nM [3H]DAMGO, CHO cell membrane protein, 60 min at 25° C.
Protocol: The Ki (binding affinity) for μ-receptor was determined with a previously described method using a competitive displacement assay (Neumeyer et al., J. Med. Chem., v. 46, p. 5162-5170, 2003). Membrane protein from CHO (Chinese Hamster Ovarian) cells that stably expressed one type of the cloned human opioid receptor were incubated with 12 different concentrations of the compound in the presence of 0.25 nM [3H]DAMGO, 0.2 nM [3H]naltrindole or 1 nM [3H]U69,593 in a final volume of 1 mL of 50 mM Tris-HCl, pH 7.5 at 25° C. Incubation times of 60 min were used for [3H]DAMGO and [3H]U69,593. Because of a slower association of [3H]naltrindole with the receptor, a 3 h incubation was used with this radioligand. Samples incubated with [3H]naltrindole also contained 10 mM MgCl2 and 0.5 mM phenylmethylsulfonyl fluoride. Nonspecific binding was measured by inclusion of 10 μM naloxone. The binding was terminated by filtering the samples through Schleicher & Schuell No. 32 glass fiber filters using a Brandel 48-well cell harvester. The filters were subsequently washed three times with 3 mL of cold 50 mM Tris-HCl, pH 7.5, and were counted in 2 mL Ecoscint A scintillation fluid. For [3H]naltrindole and [3H]U69,593 binding, the filters were soaked in 0.1% polyethylenimine for at least 60 min before use. IC50 values will be calculated by least squares fit to a logarithm-probit analysis. Ki values of unlabelled compounds were calculated from the equation Ki=(IC50)/1+S where S=(concentration of radioligand)/(Kd of radioligand) (Cheng and Prusoff, Biochemical Pharmacology, v. 22, p. 3099-3108, 1973).

[2] = molecular target: human μ opioid receptor (Homo sapiens (Human), UniProt P35372); experiment: Functional activity ([35S]GTPγS binding); format: biochemical; conditions: [35S]GTPγS 0.080 nM, CHO cell membranes, 60 min at 30° C., filtration
Protocol: The [^35S]GTPγS assay measures the functional properties of a compound by quantifying the level of G-protein activation following agonist binding in studies using stably transfected cells, and is considered to be a measure of the efficacy of a compound. Membranes from CHO (Chinese Hamster Ovary) cells that stably expressed one type of the cloned human opioid receptor human were used in the experiments. In a final volume of 0.5 mL, 12 different concentrations of each test compound were incubated with 7.5 μg of CHO cell membranes that stably expressed the human p opioid receptor. The assay buffer consisted of 50 mM Tris-HCl, pH 7.4, 3 mM MgCl2, 0.2 mM EGTA, 3 μM GDP, and 100 mM NaCl. The final concentration of [35S]GTPγS was 0.080 nM. Nonspecific binding was measured by inclusion of 10 μM GTPγS. Binding was initiated by the addition of the membranes. After an incubation of 60 min at 30° C., the samples were filtered through Schleicher & Schuell No. 32 glass fiber filters. The filters were washed three times with cold 50 mM Tris-HCl, pH 7.5, and were counted in 2 mL of Ecoscint scintillation fluid.

Row | Compound | Ki [1] [nM] | EC50 [2] [nM]
1 | COC1(c2cccc(C(N)=O)c2)C2CCCC1CN(CC1CCS(=O)(=O)CC1)C2 [Compound 1, 3-((1R,5S,9r)-3-((1,1-dioxidotetrahydro-2H-thiopyran-4-yl)methyl)-9-methoxy-3-azabicyclo[3.3.1]nonan-9-yl)benzamide hydrochloride] | 1 to 5 | > 75
2 | COC1(c2ccnc(C(N)=O)c2)C2CCCC1CN([C@H]1C[C@@H](F)C1)C2 (stereo partly drawn) [Compound 2, 4-((1R,5S,9R)-3-((1s,3S)-3-fluorocyclobutyl)-9-methoxy-3-azabicyclo[3.3.1]nonan-9-yl)picolinamide hydrochloride] | < 1 | 10 to 75
3 | COC1(c2cccc(C(N)=O)c2)C2CCCC1CN(C1CCC3(CC1)COC3)C2 [Compound 3, 3-((1R,5S,9r)-9-methoxy-3-(2-oxaspiro[3.5]nonan-7-yl)-3-azabicyclo[3.3.1]nonan-9-yl)benzamide (S)-2-hydroxysuccinate] | < 1 | < 10
4 | COC1(c2ccnc(C(N)=O)c2)C2CCCC1CN(C1(C)CC1)C2 [Compound 4, 4-((1R,5S,9r)-9-methoxy-3-(1-methylcyclopropyl)-3-azabicyclo[3.3.1]nonan-9-yl)picolinamide hydrochloride] | > 5 | > 75
5 | COC1(c2cccc(C(N)=O)c2)C2CCCC1CN(C1CC3(CCOCC3)C1)C2 [Compound 6, 3-((1R,5S,9r)-9-methoxy-3-(7-oxaspiro[3.5]nonan-2-yl)-3-azabicyclo[3.3.1]nonan-9-yl)benzamide hydrochloride] | < 1 | < 10
6 | COC1(c2ccnc(C(N)=O)c2)C2CCCC1CN(C1CCC(F)(F)CC1)C2 [Compound 7, 4-((1R,5S,9r)-3-(4,4-difluorocyclohexyl)-9-methoxy-3-azabicyclo[3.3.1]nonan-9-yl)picolinamide hydrochloride] | 1 to 5 | > 75
7 | COC1(c2cccc(C(N)=O)c2)C2CCCC1CN(C1CCC(F)(F)CC1)C2 [Compound 9, 3-((1R,5S,9r)-3-(4,4-difluorocyclohexyl)-9-methoxy-3-azabicyclo[3.3.1]nonan-9-yl)benzamide hydrochloride] | < 1 | 10 to 75
8 | COC1(c2ccnc(C(N)=O)c2)C2CCCC1CN(C1CC3CCC(C1)O3)C2 [Compound 10, 4-((1R,5S,9R)-3-((1R,3r,5S)-8-oxabicyclo[3.2.1]octan-3-yl)-9-methoxy-3-azabicyclo[3.3.1]nonan-9-yl)picolinamide hydrochloride] | > 5 | > 75
9 | COC1(c2cccc(C(N)=O)c2)C2CCCC1CN([C@H]1C[C@H]3C[C@H]3C1)C2 (stereo partly drawn) [Compound 11, 3-((1R,5S,9r)-3-(bicyclo[3.1.0]hexan-3-yl)-9-methoxy-3-azabicyclo[3.3.1]nonan-9-yl)benzamide hydrochloride] | < 1 | < 10
10 | COC1(c2ccnc(C(N)=O)c2)C2CCCC1CN(C1CC3(CCOCC3)C1)C2 [Compound 13, 4-((1R,5S,9r)-9-methoxy-3-(7-oxaspiro[3.5]nonan-2-yl)-3-azabicyclo[3.3.1]nonan-9-yl)picolinamide hydrochloride] | < 1 | < 10
11 | COC1(c2cccc(C(N)=O)c2)C2CCCC1CN([C@H]1C[C@@H]3[C@H](C1)C3(F)F)C2 (stereo partly drawn) [Compound 17, 3-((1R,5S,9R)-3-((1R,3r,5S)-6,6-difluorobicyclo[3.1.0]hexan-3-yl)-9-methoxy-3-azabicyclo[3.3.1]nonan-9-yl)benzamide hydrochloride] | < 1 | < 10
12 | COC1(c2ccnc(C(N)=O)c2)C2CCCC1CN([C@H]1C[C@@H]3[C@H](C1)C3(F)F)C2 (stereo partly drawn) [Compound 18, 4-((1R,5S,9R)-3-((1R,3r,5S)-6,6-difluorobicyclo[3.1.0]hexan-3-yl)-9-methoxy-3-azabicyclo[3.3.1]nonan-9-yl)picolinamide hydrochloride] | < 1 | < 10
13 | COC1(c2cccc(C(N)=O)c2)C2CCCC1CN(Cc1ccccc1)C2 [Compound 21, 3-((1R,5S,9r)-3-benzyl-9-methoxy-3-azabicyclo[3.3.1]nonan-9-yl)benzamide hydrochloride] | < 1 | < 10
14 | COC1(c2cccc(C(N)=O)c2)C2CCCC1CN(CCc1ccccc1)C2 [Compound 24, 3-((1R,5S,9r)-9-methoxy-3-phenethyl-3-azabicyclo[3.3.1]nonan-9-yl)benzamide hydrochloride] | < 1 | < 10
15 | COC1(c2cccc(C(N)=O)c2)C2CCCC1CN(CC1CCC1)C2 [Compound 26, 3-((1R,5S,9r)-3-(cyclobutylmethyl)-9-methoxy-3-azabicyclo[3.3.1]nonan-9-yl)benzamide hydrochloride] | < 1 | < 10
16 | CCCCN1CC2CCCC(C1)C2(OC)c1cccc(C(N)=O)c1 [Compound 29, 3-((1R,5S,9r)-3-butyl-9-methoxy-3-azabicyclo[3.3.1]nonan-9-yl)benzamide hydrochloride] | < 1 | < 10
17 | CCOC1(c2cccc(C(N)=O)c2)C2CCCC1CN(CC1CC1)C2 [Compound 30, 3-((1R,5S,9r)-3-(cyclopropylmethyl)-9-ethoxy-3-azabicyclo[3.3.1]nonan-9-yl)benzamide hydrochloride] | < 1 | < 10
18 | COC1(c2cccc(C(N)=O)c2)C2CCCC1CN(CCC(F)(F)F)C2 [Compound 34, 3-((1R,5S,9r)-9-methoxy-3-(3,3,3-trifluoropropyl)-3-azabicyclo[3.3.1]nonan-9-yl)benzamide hydrochloride] | < 1 | < 10
19 | COC1(c2cccc(C(N)=O)c2)C2CCCC1CNC2 [Compound 35, 3-((1R,5S,9r)-9-methoxy-3-azabicyclo[3.3.1]nonan-9-yl)benzamide hydrochloride] | < 1 | 10 to 75
20 | COC1(c2ccc(C(N)=O)s2)C2CCCC1CN(CC1CC1)C2 [Compound 36, 5-((1R,5S,9r)-3-(cyclopropylmethyl)-9-methoxy-3-azabicyclo[3.3.1]nonan-9-yl)thiophene-2-carboxamide hydrochloride] | < 1 | 10 to 75
21 | CN1CC2CCCC(C1)C2(OCC(F)(F)F)c1cccc(C(N)=O)c1 [Compound 37, 3-((1R,5S,9r)-3-methyl-9-(2,2,2-trifluoroethoxy)-3-azabicyclo[3.3.1]nonan-9-yl)benzamide hydrochloride] | 1 to 5 | 10 to 75
22 | COC1(c2cccc(C(N)=O)c2)C2CCCC1CN(C1CC1)C2 [Compound 38, 3-((1R,5S,9r)-3-cyclopropyl-9-methoxy-3-azabicyclo[3.3.1]nonan-9-yl)benzamide hydrochloride] | < 1 | 10 to 75
23 | COC1(c2cccc(C(N)=O)c2F)C2CCCC1CN(C)C2 [Compound 39, 2-fluoro-3-((1R,5S,9r)-9-methoxy-3-methyl-3-azabicyclo[3.3.1]nonan-9-yl)benzamide hydrochloride] | 1 to 5 | 10 to 75
24 | COC1(c2cccc(C(N)=O)c2)C2CCCC1CN(CC1(F)CC1)C2 [Compound 40, 3-((1R,5S,9r)-3-((1-fluorocyclopropyl)methyl)-9-methoxy-3-azabicyclo[3.3.1]nonan-9-yl)benzamide hydrochloride] | < 1 | 10 to 75
25 | COC1(c2cccc(C(N)=O)c2)C2CCCC1CN(C1CCC1)C2 [Compound 42, 3-((1R,5S,9r)-3-cyclobutyl-9-methoxy-3-azabicyclo[3.3.1]nonan-9-yl)benzamide hydrochloride] | < 1 | < 10
26 | COC1(c2cccc(C(N)=O)c2)C2CCCC1CN(C1CCOCC1)C2 [Compound 45, 3-((1R,5S,9r)-9-methoxy-3-(tetrahydro-2H-pyran-4-yl)-3-azabicyclo[3.3.1]nonan-9-yl)benzamide hydrochloride] | 1 to 5 | 10 to 75
27 | CCCN1CC2CCCC(C1)C2(OC)c1cccc(C(N)=O)c1 [Compound 47, 3-((1R,5S,9r)-9-methoxy-3-propyl-3-azabicyclo[3.3.1]nonan-9-yl)benzamide hydrochloride] | < 1 | < 10
